From PubChem BioAssay AID248 (DTP/NCI, 2004)
“And” between values parts separate entries of the source, which are not always exact repeats. Equal values may be shown once. Inconclusive results and toxic doses are left out. No stated cut-off is given here; in the data, active means T/C of 150% or more; inactive means T/C below 125%.

Tested on: L1210 leukemia ip in BDF1 mice, survival T/C
Test: NCI In Vivo Anticancer Drug Screen. Data for tumor model L1210 Leukemia (intraperitoneal) in B6D2F1 (BDF1) mice
Details: endpoint: mean survival time, higher = longer survival
Procedure, shortened: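 In this screen, tumor-bearing mice given compound are compared to those given vehicle, and their survival values are reported as a treated-to-control quotient.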

Measured: T/C

CC(C)Cc1cc(C#N)cc(C(C)(C)C)c1O
inactive: dose: 100.0 mg/kg/injection, schedule: Q04DX002 (ip), vehicle: Klucel (hydroxypropylcellulose) (HPC) 100 % of control | dose: 200.0 mg/kg/injection, schedule: Q04DX002 (ip), vehicle: Klucel (hydroxypropylcellulose) (HPC) 100 % of control | dose: 400.0 mg/kg/injection, schedule: Q04DX002 (ip), vehicle: Klucel (hydroxypropylcellulose) (HPC) 103 % of control

CCN=C(NCC)c1ccc(NC(=O)c2ccc(C(=O)Nc3ccc(C(=NCC)NCC)cc3)c(Cl)c2)cc1
inactive: dose: 1.87 mg/kg/injection, schedule: Q01DX Z (ip), vehicle: carboxymethylcellulose (CMC) 101 % of control | dose: 3.75 mg/kg/injection, schedule: Q01DX Z (ip), vehicle: carboxymethylcellulose (CMC) 97 % of control | dose: 7.5 mg/kg/injection, schedule: Q01DX Z (ip), vehicle: carboxymethylcellulose (CMC) 103 % of control

COC(=O)c1ccc2cc(OC)cc([N+](=O)[O-])c2n1
inactive: dose: 50.0 mg/kg/injection, schedule: Q01DX001 (ip), vehicle: carboxymethylcellulose (CMC) 87 % of control | dose: 100.0 mg/kg/injection, schedule: Q01DX001 (ip), vehicle: carboxymethylcellulose (CMC) 93 % of control | dose: 200.0 mg/kg/injection, schedule: Q01DX001 (ip), vehicle: carboxymethylcellulose (CMC) 102 % of control | dose: 400.0 mg/kg/injection, schedule: Q01DX001 (ip), vehicle: carboxymethylcellulose (CMC) 93 % of control

OCCC(c1ccccc1)(c1ccccc1)c1ccccc1
inactive: dose: 6.25 mg/kg/injection, schedule: Q04DX003 (ip), vehicle: saline with Tween-80 98 % of control | dose: 12.5 mg/kg/injection, schedule: Q04DX003 (ip), vehicle: saline with Tween-80 100 % of control | dose: 25.0 mg/kg/injection, schedule: Q04DX003 (ip), vehicle: saline with Tween-80 89 % of control and 91 % of control | dose: 100.0 mg/kg/injection, schedule: Q04DX003 (ip), vehicle: saline with Tween-80 90 % of control

CN(N)C(=O)Nc1ccccc1Cl
inactive: dose: 75.0 mg/kg/injection, schedule: Q01DX001 (ip), vehicle: carboxymethylcellulose (CMC) 100 % of control | dose: 150.0 mg/kg/injection, schedule: Q01DX001 (ip), vehicle: carboxymethylcellulose (CMC) 107 % of control

O=C(Cc1cccc2ccccc12)OCCOCCCl
inactive: dose: 100.0 mg/kg/injection, schedule: Q04DX002 (ip), vehicle: saline with Tween-80 101 % of control | dose: 200.0 mg/kg/injection, schedule: Q04DX002 (ip), vehicle: saline with Tween-80 104 % of control | dose: 400.0 mg/kg/injection, schedule: Q04DX002 (ip), vehicle: saline with Tween-80 117 % of control
